# Measurements: US20220106596A1, “A METHOD OF GENE EDITING” (University of Washington, priority 2019, published 2022)
# How the values were obtained:
# [1] = system: HT-1080 cells with LHSN63D530 provirus and HPRT exon3D4; experiment: HPRT gene editing in HT-1080 cells infected with AAV2-HPe3 (HAT selection), effect of emetine; format: cell-based, human
# Description: (§1) The murine leukemia virus (MLV) vector LHSN63Δ53O contains a nonfunctional neomycin phosphotransferase target gene (neo) with a 53-bp deletion at nucleotide 63 of its open reading frame, a hygromycin phosphotransferase gene (hph) for selection, and a plasmid replication origin for recovering the target sites.
# (§2) In some embodiments, a cell is gene edited using the HT-1080 (human fibrosarcoma cells) gene editing assay. This method uses HT-1080 neo/HPRT editing cells transduced with LHSN63Δ53O. HT-1080 cells contain an integrated copy of an MLV LHSN63Δ530 targeting locus and a 4 by deletion in the single copy, X-linked HPRT gene at exon 3. The cells are transduced with AAV2-HSN5′ and cultured in G418 to identify neo gene-edited cells. The AAV2-HSN5′ gene targeting vector contains sequences homologous to MLV-LHSN63Δ53O with a truncated neo gene that lacks the 53 by deletion. Alternatively, HT-1080 cells are transduced with AAV2-HPe3 targeting vector and selected with HAT medium to identify HPRT gene-edited cells (See Russell et al., 2008, Human Gene Therapy, 19: 907-914 and Deyle et al., 2014, Nature Structural & Molecular Biol., 21: 969-975). Targeted clones are expanded as a polyclonal population. Untargeted control cells are generated by transducing HT-1080 cells with the MLV vector LHSNO, which is identical to LHSN63Δ53O except that it contains a functional neo gene.
# (§3) To determine the effect of emetine on gene editing, experiments were performed using human HT-1080 cells with LHSN63Δ530 provirus and HPRT exon 3Δ4, infected with AAV2-HSN5′ or AAV2-HPe3. Replicate samples of cells were treated under the following conditions: • AAV (MOI 2×10^4) alone for 24 hours; • 0.125 μM emetine for 8 hours followed by the addition of AAV (MOI 2×10^4) and incubation for 24 hours; • 0.25 μM emetine for 24 hours followed by the addition of AAV (MOI 2×10^4) and incubation for 24 hours; • 0.25 μM emetine for 24 hours followed by the addition of AAV (MOI 2×10^4) and incubation with AAV for 24 hours; • 0.25 μM emetine in the presence of AAV (MOI 2×10^4) for 24 hours; • AAV (MOI-2×10^4) for 8 hours followed by the addition of 0.25 μM emetine and incubation with emetine for 23 hours; • AAV (MOI-2×10^4) for 24 hours followed by the addition of 0.25 μM emetine and incubation with emetine for 8 hours; • AAV (MOI-2×10^4) for 8 hours followed by the addition of emetine (0.25 μM) and incubation with emetine for 18 hours, removal of emetine, followed by addition of a second dosage of emetine (0.25 μM) and incubation for 16 hours; or • AAV (MOI 2×10^4) for 24 hours followed by the addition of emetine (0.25 μM) and incubation for 7 hours, removal of emetine, followed by addition of a second dosage of emetine (0.25 μM) for 2 hours.
# (§4) For each experiment, 2×10^4 cells were seeded and cultured in the presence of 4×10^8 AAV. All experiments were performed in DMEM+10% FBS+pen/strep. Emetine dihydrochloride hydrate: E2375 (Sigma) was prepared in water and sterilized by filtration on 0.22 uM filter.
# [2] = system: mouse liver; experiment: In vivo gene editing of mouse liver with AAVDj-mALB-luciferase (bioluminescence imaging); set-up: species or system C57BL/6 mice; conditions: emetine 5 mg/kg intraperitoneal, days 1-5, FIG. 3
# Method: To determine the effect of emetine on gene editing in vivo, experiments were performed using C57BL/6 mice.
# […]. On day 0, 5 mice (Group I), were given AAVDj-mALB-luciferase vector at an amount of 3×10^11 vg/mouse by retro orbital injection. Gene editing of the AAVDj-mALB-luciferase vector results in an albumin locus knock-in and luciferase expression. 5 mice (Group 2) were injected with AAVDj-mALB-luciferase vector, at an amount of 3×10^11 vg/mouse by retro orbital injection, and given emetine in DPBS, at a concentration of 5 mg/kg, by intraperitoneal injection. 5 mice (Group 3) were injected only with emetine at a concentration of 5 mg/kg, by intraperitoneal injection.
# Emetine was administered to Groups 2 and 3 on days 1-5. On days 8, […] and 22, in vivo imaging in the presence of 15 mg/kg D-luciferin, administered by intraperitoneal injection, was performed to determine the occurrence of editing. Following D-luciferin administration, the mice were anesthetized with isoflurane and placed in an IVIS imager and the peak bioluminescence was recorded (Gornalusse et al., 2017, Nature Biotech, 35(8): 765-772). […] At days 15 and 22, a 1.6 and 1.4 fold increase, respectively, were observed.
# [3] = system: mouse Hepa1-6 hepatoma cells; experiment: Gene editing (albumin knock-in, GFP expression by flow cytometry) with AAVDJ-mAlb-GFP; format: cell-based; conditions: 1000 nM emetine
# Method: To determine the effect of emetine on gene editing, experiments were performed using mouse Hepa1-6 hepatoma cells using the vector AAVDJ-mAlb-GFP. Gene editing in the presence of this vector results in an albumin knock-in with resulting expression of green fluorescent protein (GFP).
# On day 0, 100,000 cells were plated in 1.5 ml DMEM with 10% FBS, 100 units/mL penicillin and 100 μg/mL streptomycin. On day 1, cells were transduced with AAVDJ-mAlb-GFP (multiplicity of (MOI)—50,000) by removing the media and adding to the cells 1.5 ml of fresh media (DMEM with 10% FBS, 100 units/mL penicillin, 100 μg/mL streptomycin) containing the desired MOI of the AAVDJ-mAlb-GFP virus. For 100,000 cells, to achieve an MOI of […] were added.
# On day 2, fresh medium (1.5 ml of DMEM with 10% FBS, 100 units/mL penicillin, 100 μg/mL streptomycin) with or without emetine, was added. Replicate samples were treated with no emetine, or with 30 nM emetine, 100 nM emetine or 1000 nM emetine. A control sample lacked AAV. On day 3, the media was removed and 1.5 ml of DMEM with 10% FBS, 100 units/mL penicillin, 100 μg/mL streptomycin was added to the cells. Expression of GFP was measured on days 6, 7 and 10.
# Flow cytometry was used to measure GFP expression. On the day of the assay (days 6, 7 and 10) cells were trypsinized and the resulting cell pellet was resuspended in 500 μL of FACS buffer (DPBS (Dulbecco's Phosphate Buffered Saline) without Ca2+, Mg2+, and supplemented with 2% FBS, 1 mM EDTA). The resulting cell suspension was analyzed for GFP positive cells on the BD FACScanto II. For samples treated with no AAV, 0 nM emetine, 30 nM emetine, and 100 nM emetine, 100,000 cells were analyzed, and for samples treated with 1000 nM emetine, 70,000 cells were analyzed.
# [4] = system: HT-1080 cells with LHSN63D530 provirus and HPRT exon3D4; experiment: neo gene editing in HT-1080 cells infected with AAV2-HSN5′ (G418 selection), effect of emetine; format: cell-based, human
# Description: as §1, §2, §3, §4
# [5] = 0.125 μM emetine for 8 hrs before adding AAV
# [6] = 0.25 μM emetine for 24 hrs before adding AAV
# [7] = 0.25 μM emetine for 24 hrs before adding AAV + 24 hrs with AAV
# [8] = 0.25 μM emetine for 24 hrs with AAV
# [9] = AAV for 8 hrs, then added 0.25 μM emetine for 23 hrs
# [10] = AAV for 8 hrs, then added emetine for 18 hrs, then removed emetine for 8 hrs, then added emetine for 16 hrs
# [11] = AAV for 24 hrs then with 0.25 μM emetine for 8 hrs
# [12] = AAV for 24 hrs, then emetine for 7 hrs, then removed emetine for 16 hrs, then added emetine for 2 hrs
structure (smiles),measurement,setting,value
CC[C@H]1CN2CCc3cc(OC)c(OC)cc3[C@@H]2C[C@@H]1C[C@H]1NCCc2cc(OC)c(OC)cc21 [emetine],"Fold increase in editing frequency due to emetine, % HATR/% HAR no emetine",[1]; [5],8.39 Fold
same,"Fold increase in editing frequency due to emetine, % HATR/% HAR no emetine",[1]; [6],7.25 Fold
same,"Fold increase in editing frequency due to emetine, % HATR/% HAR no emetine",[1]; [7],11.19 Fold
same,"Fold increase in editing frequency due to emetine, % HATR/% HAR no emetine",[1]; [8],8.39 Fold
same,"Fold increase in editing frequency due to emetine, % HATR/% HAR no emetine",[1]; [9],1.99 Fold
same,"Fold increase in editing frequency due to emetine, % HATR/% HAR no emetine",[1]; [10],2.88 Fold
same,"Fold increase in editing frequency due to emetine, % HATR/% HAR no emetine",[1]; [11],1.63 Fold
same,"Fold increase in editing frequency due to emetine, % HATR/% HAR no emetine",[1]; [12],1.56 Fold
same,increase in level of gene editing in vivo in mouse liver (peak bioluminescence) as compared to mice treated with AAV alone,[2]; day 8,2.3 fold
same,increase in level of gene editing in vivo in mouse liver (peak bioluminescence) as compared to mice treated with AAV alone,[2]; day 15,1.6 fold
same,increase in level of gene editing in vivo in mouse liver (peak bioluminescence) as compared to mice treated with AAV alone,[2]; day 22,1.4 fold
same,increase in expression of GFP,"[3]; day 6, FIG. 2",22 fold
same,increase in expression of GFP,"[3]; day 7, FIG. 2",12 fold
same,increase in expression of GFP,"[3]; day 10, FIG. 2",3 fold
same,"Fold increase in editing frequency due to emetine, % G4158R emetine/% G418R no emetine",[4]; [5],2.40 Fold
same,"Fold increase in editing frequency due to emetine, % G4158R emetine/% G418R no emetine",[4]; [6],3.82 Fold
same,"Fold increase in editing frequency due to emetine, % G4158R emetine/% G418R no emetine",[4]; [7],6.64 Fold
same,"Fold increase in editing frequency due to emetine, % G4158R emetine/% G418R no emetine",[4]; [8],3.70 Fold
same,"Fold increase in editing frequency due to emetine, % G4158R emetine/% G418R no emetine",[4]; [9],1.96 Fold
same,"Fold increase in editing frequency due to emetine, % G4158R emetine/% G418R no emetine",[4]; [10],8.47 Fold
same,"Fold increase in editing frequency due to emetine, % G4158R emetine/% G418R no emetine",[4]; [11],1.94 Fold
same,"Fold increase in editing frequency due to emetine, % G4158R emetine/% G418R no emetine",[4]; [12],2.63 Fold
